Results taken from patent US8431706B2, “1,2,3,4-tetrahydroqinoline derivative useful for the treatment of diabetes” (Eli Lilly and Company, priority 2011, dated 2013).

Target: T1, PPARγ (Homo sapiens, UniProt P37231)
T1 sequence (P37231 1-505): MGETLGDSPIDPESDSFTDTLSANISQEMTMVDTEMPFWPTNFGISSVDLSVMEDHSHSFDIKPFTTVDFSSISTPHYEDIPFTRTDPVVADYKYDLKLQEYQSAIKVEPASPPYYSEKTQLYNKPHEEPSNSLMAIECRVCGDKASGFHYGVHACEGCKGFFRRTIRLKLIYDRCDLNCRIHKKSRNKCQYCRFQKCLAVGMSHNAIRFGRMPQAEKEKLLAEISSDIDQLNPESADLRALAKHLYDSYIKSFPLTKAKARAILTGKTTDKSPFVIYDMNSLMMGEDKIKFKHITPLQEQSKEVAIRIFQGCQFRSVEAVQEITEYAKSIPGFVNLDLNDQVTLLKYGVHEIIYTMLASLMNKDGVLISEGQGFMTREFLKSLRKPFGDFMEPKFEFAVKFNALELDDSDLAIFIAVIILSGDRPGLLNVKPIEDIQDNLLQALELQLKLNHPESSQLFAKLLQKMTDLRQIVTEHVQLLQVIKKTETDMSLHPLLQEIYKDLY
T1 sequence (P19793 1-462 partner): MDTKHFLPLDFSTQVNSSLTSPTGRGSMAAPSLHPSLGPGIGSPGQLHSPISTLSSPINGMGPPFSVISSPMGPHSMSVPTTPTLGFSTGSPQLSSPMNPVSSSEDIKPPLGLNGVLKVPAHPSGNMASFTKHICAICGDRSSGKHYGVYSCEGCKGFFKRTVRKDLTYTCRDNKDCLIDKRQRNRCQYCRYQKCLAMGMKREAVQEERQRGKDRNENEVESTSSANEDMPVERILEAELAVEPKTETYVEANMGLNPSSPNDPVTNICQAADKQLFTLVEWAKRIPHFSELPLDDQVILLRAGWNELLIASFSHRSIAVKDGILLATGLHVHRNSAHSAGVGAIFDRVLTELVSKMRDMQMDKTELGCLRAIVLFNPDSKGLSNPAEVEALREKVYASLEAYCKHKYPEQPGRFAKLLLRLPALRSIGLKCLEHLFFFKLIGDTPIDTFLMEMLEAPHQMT
Assay: PPARγ reporter functional assay in CV1 cells
Assay type: cell-based
Conditions: examined up to 10 μM; luciferase reporter; 24 hours
Description: Gal4 PPARα, Gal4 PPARδ, and PPARγ reporter functional assays are also used to monitor the selectivity of the exemplified compound. CV1 cells, which are derived from the renal tissue of an African green monkey, are transfected with various receptor and reporter plasmids using Fugene. For the Gal4 PPARα and PPARδ assays, a reporter plasmid containing five tandem copies of the yeast transcription protein Gal4 response element, cloned upstream of a firefly luciferase gene driven by the major late promoter of adenovirus, is transfected together with a Simian Virus 40 (SV40) driven plasmid constitutively expressing a hybrid protein containing the Gal4 DNA binding domain (DBD), and either the PPARα or PPARδ ligand binding. For the PPARγ assay, plasmids encoding PPARγ and RXRα, both driven by a cytomegalovirus (CMV) promoter are transfected together with a plasmid containing luciferase reporter cDNA driven by the TK promoter and a receptor response element (2×PPRE). Cells are transfected in T225 cm^2 cell culture flasks in DMEM media with 5% charcoal-stripped FBS. […] After 24 hours incubation with the compound, cells are lysed and luciferase activity is determined as a measure of receptor activation by luminescence. […] The maximum percent stimulation is determined versus maximum stimulation obtained with 10 μM of an appropriate PPAR agonist reference compound. […]

functional activation of PPARγ: No functional activation
Compound: CC#C[C@@H](CC(=O)O)c1ccc(OCc2ccc(CN3CCCc4cccc(OC)c43)s2)cc1 [Example 1, (3S)-3-[4-[[5-[(8-Methoxy-3,4-dihydro-2H-quinolin-1-yl)methyl]-2-thienyl]methoxy]phenyl]hex-4-ynoic acid]
